In article PMC11277489, “Novel Piperazine Derivatives of Vindoline as Anticancer Agents” (International Journal of Molecular Sciences, 2024):
Like-named read-outs stand apart in the source and are kept apart here.

How the values were obtained:
CCRF-CEM = assay: NCI60 one-dose screen (10 μM), Leukemia; assay type: cell-based; conditions: Homo sapiens, read-out: Growth percent rate
HL-60(TB) = assay: NCI60 one-dose screen (10 μM), Leukemia; assay type: cell-based; conditions: Homo sapiens
K-562 = assay: NCI60 one-dose screen (10 μM), Leukemia; assay type: cell-based; conditions: Homo sapiens
MOLT-4 = assay: NCI60 one-dose screen (10 μM), Leukemia; assay type: cell-based, human; conditions: Homo sapiens
A549/ATCC = assay: NCI60 one-dose screen (10 μM), Non-small Cell Lung Cancer; assay type: cell-based; conditions: Homo sapiens
EKVX = assay: as above; assay type: cell-based; conditions: Homo sapiens, read-out: Growth percent rate
NCI-H23 = assay: as above; assay type: cell-based; conditions: Homo sapiens
NCI-H322M = assay: as above; assay type: cell-based; conditions: Homo sapiens, read-out: Growth percent rate
NCI-H460 = assay: as above; assay type: cell-based; conditions: Homo sapiens
NCI-H522 = assay: as above; assay type: cell-based; conditions: Homo sapiens
COLO 205 = assay: NCI60 one-dose screen (10 μM), Colon Cancer; assay type: cell-based, human; conditions: Homo sapiens
HCC-2998 = assay: NCI60 one-dose screen (10 μM), Colon Cancer; assay type: cell-based; conditions: Homo sapiens
HCT-116 = assay: NCI60 one-dose screen (10 μM), Colon Cancer; assay type: cell-based; conditions: Homo sapiens
HCT-15 = assay: NCI60 one-dose screen (10 μM), Colon Cancer; assay type: cell-based; conditions: Homo sapiens
HT29 = assay: NCI60 one-dose screen (10 μM), Colon Cancer; assay type: cell-based; conditions: Homo sapiens
KM12 = assay: NCI60 one-dose screen (10 μM), Colon Cancer; assay type: cell-based, human; conditions: Homo sapiens
SW-620 = assay: NCI60 one-dose screen (10 μM), Colon Cancer; assay type: cell-based; conditions: Homo sapiens
SF-268 = assay: NCI60 one-dose screen (10 μM), CNS Cancer; assay type: cell-based; conditions: Homo sapiens
SF-295 = assay: NCI60 one-dose screen (10 μM), CNS Cancer; assay type: cell-based; conditions: Homo sapiens
SF-539 = assay: NCI60 one-dose screen (10 μM), CNS Cancer; assay type: cell-based, human; conditions: Homo sapiens
SNB-19 = assay: NCI60 one-dose screen (10 μM), CNS Cancer; assay type: cell-based; conditions: Homo sapiens
SNB-75 = assay: NCI60 one-dose screen (10 μM), CNS Cancer; assay type: cell-based, human; conditions: Homo sapiens
LOX IMVI = assay: NCI60 one-dose screen (10 μM), Melanoma; assay type: cell-based, human; conditions: Homo sapiens, LOX IMVI, read-out: Growth percent rate
MALME-3M = assay: NCI60 one-dose screen (10 μM), Melanoma; assay type: cell-based; conditions: Homo sapiens, read-out: Growth percent rate
M14 = assay: NCI60 one-dose screen (10 μM), Melanoma; assay type: cell-based; conditions: Homo sapiens
MDA-MB-435 = assay: NCI60 one-dose screen (10 μM), Melanoma; assay type: cell-based; conditions: Homo sapiens
SK-MEL-2 = assay: NCI60 one-dose screen (10 μM), Melanoma; assay type: cell-based; conditions: Homo sapiens
SK-MEL-28 = assay: NCI60 one-dose screen (10 μM), Melanoma; assay type: cell-based; conditions: Homo sapiens
SK-MEL-5 = assay: NCI60 one-dose screen (10 μM), Melanoma; assay type: cell-based, human; conditions: Homo sapiens
UACC-257 = assay: NCI60 one-dose screen (10 μM), Melanoma; assay type: cell-based; conditions: Homo sapiens
IGROV1 = assay: NCI60 one-dose screen (10 μM), Ovarian Cancer; assay type: cell-based; conditions: Homo sapiens
OVCAR-3 = assay: NCI60 one-dose screen (10 μM), Ovarian Cancer; assay type: cell-based; conditions: Homo sapiens
OVCAR-4 = assay: NCI60 one-dose screen (10 μM), Ovarian Cancer; assay type: cell-based; conditions: Homo sapiens
OVCAR-8 = assay: NCI60 one-dose screen (10 μM), Ovarian Cancer; assay type: cell-based; conditions: Homo sapiens
786–0 = assay: NCI60 one-dose screen (10 μM), Renal Cancer; assay type: cell-based; conditions: Homo sapiens
ACHN = assay: NCI60 one-dose screen (10 μM), Renal Cancer; assay type: cell-based; conditions: Homo sapiens, read-out: Growth percent rate
CAKI-1 = assay: NCI60 one-dose screen (10 μM), Renal Cancer; assay type: cell-based; conditions: Homo sapiens
RXF 393 = assay: NCI60 one-dose screen (10 μM), Renal Cancer; assay type: cell-based, human; conditions: Homo sapiens
SN12C = assay: NCI60 one-dose screen (10 μM), Renal Cancer; assay type: cell-based; conditions: Homo sapiens, read-out: Growth percent rate
DU-145 = assay: NCI60 one-dose screen (10 μM), Prostate Cancer; assay type: cell-based; conditions: Homo sapiens
MCF7 = assay: NCI60 one-dose screen (10 μM), Breast Cancer; assay type: cell-based; conditions: Homo sapiens
[1] = test system: 60 human tumor cell lines (NCI60); assay: NCI60 one-dose screen (10 μM), whole panel; assay type: cell-based; conditions: for activity at 10 µM: read-out: Growth percent rate, Mean
[2] = 10 μM, Non-small Cell Lung Cancer

CC[C@]12C=CCN3CC[C@@]4(c5ccc(OC)cc5N(C)[C@H]4[C@@](O)(C(=O)OC)[C@@H]1OC(=O)CCC(=O)N1CCN(Cc4ccc(C(F)(F)F)cc4)CC1)[C@@H]32 [Compound 29]
activity at 10 µM (CCRF-CEM; 10 μM, Leukemia): 3.8% | activity at 10 µM (HL-60(TB); 10 μM, HL-60(TB), Leukemia, read-out: Growth percent rate): -58.2% | activity at 10 µM (K-562; K562, 10 μM, K-562, Leukemia, read-out: Growth percent rate): -12.5% | activity at 10 µM (MOLT-4; 10 μM, MOLT-4, Leukemia, read-out: Growth percent rate): -4.63% | activity at 10 µM (A549/ATCC; 10 μM, A549/ATCC, Non-small Cell Lung Cancer, read-out: Growth percent rate): 25.3% | activity at 10 µM (EKVX; [2]): 25.4% | activity at 10 µM (NCI-H23; 10 μM, NCI-H23, Non-small Cell Lung Cancer, read-out: Growth percent rate): 29.4% | activity at 10 µM (NCI-H322M; [2]): 35.4% | activity at 10 µM (NCI-H460; 10 μM, NCI-H460, Non-small Cell Lung Cancer, read-out: Growth percent rate): -11.4% | activity at 10 µM (NCI-H522; 10 μM, NCI-H522, Non-small Cell Lung Cancer, read-out: Growth percent rate): 28.2% | activity at 10 µM (COLO 205; 10 μM, COLO 205, Colon Cancer, read-out: Growth percent rate): -91% | activity at 10 µM (HCC-2998; 10 μM, HCC-2998, Colon Cancer, read-out: Growth percent rate): -52.6% | activity at 10 µM (HCT-116; 10 μM, HCT-116, Colon Cancer, read-out: Growth percent rate): 7.59% | activity at 10 µM (HCT-15; 10 μM, HCT-15, Colon Cancer, read-out: Growth percent rate): 15% | activity at 10 µM (HT29; HT-29, 10 μM, HT29, Colon Cancer, read-out: Growth percent rate): -10% | activity at 10 µM (KM12; 10 μM, KM12, Colon Cancer, read-out: Growth percent rate): 3.78% | activity at 10 µM (SW-620; 10 μM, SW-620, Colon Cancer, read-out: Growth percent rate): 9.15% | activity at 10 µM (SF-268; 10 μM, SF-268, CNS Cancer, read-out: Growth percent rate): 14.6% | activity at 10 µM (SF-295; 10 μM, SF-295, CNS Cancer, read-out: Growth percent rate): 7.76% | activity at 10 µM (SF-539; 10 μM, SF-539, CNS Cancer, read-out: Growth percent rate): 11.7% | activity at 10 µM (SNB-19; 10 μM, SNB-19, CNS Cancer, read-out: Growth percent rate): 20.1% | activity at 10 µM (SNB-75; 10 μM, SNB-75, CNS Cancer, read-out: Growth percent rate): 7.51% | activity at 10 µM (LOX IMVI; 10 μM, Melanoma): -7.07% | activity at 10 µM (MALME-3M; 10 μM, MALME-3M, Melanoma): -26.5% | activity at 10 µM (M14; 10 μM, M14, Melanoma, read-out: Growth percent rate): -20.3% | activity at 10 µM (MDA-MB-435; 10 μM, MDA-MB-435, Melanoma, read-out: Growth percent rate): 3.59% | activity at 10 µM (SK-MEL-2; 10 μM, SK-MEL-2, Melanoma, read-out: Growth percent rate): -63.4% | activity at 10 µM (SK-MEL-28; 10 μM, SK-MEL-28, Melanoma, read-out: Growth percent rate): 7.72% | activity at 10 µM (SK-MEL-5; 10 μM, SK-MEL-5, Melanoma, read-out: Growth percent rate): -90.9% | activity at 10 µM (UACC-257; 10 μM, UACC-257, Melanoma, read-out: Growth percent rate): 22.6% | activity at 10 µM (IGROV1; IGROV-1, 10 μM, IGROV1, Ovarian Cancer, read-out: Growth percent rate): -31.2% | activity at 10 µM (OVCAR-3; 10 μM, OVCAR-3, Ovarian Cancer, read-out: Growth percent rate): 0.33% | activity at 10 µM (OVCAR-4; 10 μM, OVCAR-4, Ovarian Cancer, read-out: Growth percent rate): 10.5% | activity at 10 µM (OVCAR-8; 10 μM, OVCAR-8, Ovarian Cancer, read-out: Growth percent rate): 23.4% | activity at 10 µM (786–0; 10 μM, 786-0, Renal Cancer, read-out: Growth percent rate): 11.9% | activity at 10 µM (ACHN; 10 μM, Renal Cancer): 3.7% | activity at 10 µM (CAKI-1; 10 μM, CAKI-1, Renal Cancer, read-out: Growth percent rate): 6.02% | activity at 10 µM (RXF 393; 10 μM, RXF 393, Renal Cancer, read-out: Growth percent rate): 10.2% | activity at 10 µM (SN12C; 10 μM, Renal Cancer): 14.8% | activity at 10 µM (DU-145; 10 μM, DU-145, Prostate Cancer, read-out: Growth percent rate): 20.3% | activity at 10 µM (MCF7; 10 μM, MCF7, Breast Cancer, read-out: Growth percent rate): 10.9% | activity at 10 µM ([1]; 10 μM, mean over 60 human cancer cell lines): -1.41%

CCC12C=CCN3CCC4(c5ccc(OC)cc5N(C)C4C(O)(C(=O)OC)C1O)C32 (stereo not shown) [Compound 13, 17-desacetylvindoline]
activity at 10 µM (CCRF-CEM): 103% | activity at 10 µM (HL-60(TB); HL-60, read-out: Growth percent rate): 119% | activity at 10 µM (K-562; K562, read-out: Growth percent rate): 101% | activity at 10 µM (MOLT-4; MOLT-4, read-out: Growth percent rate): 100% | activity at 10 µM (A549/ATCC; A549, read-out: Growth percent rate): 103% | activity at 10 µM (EKVX): 98.9% | activity at 10 µM (NCI-H23; NCI-H23, read-out: Growth percent rate): 93% | activity at 10 µM (NCI-H322M): 92.8% | activity at 10 µM (NCI-H460; NCI-H460, read-out: Growth percent rate): 106% | activity at 10 µM (NCI-H522; NCI-H522, read-out: Growth percent rate): 94% | activity at 10 µM (COLO 205; COLO 205, read-out: Growth percent rate): 118% | activity at 10 µM (HCC-2998; HCC 2998, read-out: Growth percent rate): 96.8% | activity at 10 µM (HCT-116; HCT-116, read-out: Growth percent rate): 99.2% | activity at 10 µM (HCT-15; HCT-15, read-out: Growth percent rate): 99.2% | activity at 10 µM (HT29; HT-29, read-out: Growth percent rate): 102% | activity at 10 µM (KM12; KM12, read-out: Growth percent rate): 103% | activity at 10 µM (SW-620; SW-620, read-out: Growth percent rate): 99.4% | activity at 10 µM (SF-268; SF-268, read-out: Growth percent rate): 107% | activity at 10 µM (SF-295; SF-295, read-out: Growth percent rate): 101% | activity at 10 µM (SF-539; SF-539, read-out: Growth percent rate): 96.6% | activity at 10 µM (SNB-19; SNB-19, read-out: Growth percent rate): 97.4% | activity at 10 µM (SNB-75; SNB-75, read-out: Growth percent rate): 84.9% | activity at 10 µM (LOX IMVI): 97.5% | activity at 10 µM (MALME-3M; Malme-3M): 90.8% | activity at 10 µM (M14; M14, read-out: Growth percent rate): 94.7% | activity at 10 µM (MDA-MB-435; MDA-MB-435, read-out: Growth percent rate): 89% | activity at 10 µM (SK-MEL-2; SK-MEL-2, read-out: Growth percent rate): 116% | activity at 10 µM (SK-MEL-28; SK-MEL-28, read-out: Growth percent rate): 92.1% | activity at 10 µM (SK-MEL-5; SK-MEL-5, read-out: Growth percent rate): 90.5% | activity at 10 µM (UACC-257; UACC-257, read-out: Growth percent rate): 96.7% | activity at 10 µM (IGROV1; IGROV-1, read-out: Growth percent rate): 95.8% | activity at 10 µM (OVCAR-3; OVCAR-3, read-out: Growth percent rate): 112% | activity at 10 µM (OVCAR-4; OVCAR-4, read-out: Growth percent rate): 95.8% | activity at 10 µM (OVCAR-8; OVCAR-8, read-out: Growth percent rate): 103% | activity at 10 µM (786–0; 786-0, read-out: Growth percent rate): 97.7% | activity at 10 µM (ACHN): 96% | activity at 10 µM (CAKI-1; CAKI-1, read-out: Growth percent rate): 98.2% | activity at 10 µM (RXF 393; RXF 393, read-out: Growth percent rate): 104% | activity at 10 µM (SN12C): 99% | activity at 10 µM (DU-145; DU-145, read-out: Growth percent rate): 110% | activity at 10 µM (MCF7; MCF7, read-out: Growth percent rate): 95.7% | antiproliferative effect (in words) ([1]; 10 μM one-dose, NCI60): a notable antiproliferative effect was not shown | activity at 10 µM ([1]; Homo sapiens): 98.8%
